Source: PMC6628320, “Poly-Saturated Dolichols from Filamentous Fungi Modulate Activity of Dolichol-Dependent Glycosyltransferase and Physical Properties of Membranes” (International Journal of Molecular Sciences, 2019)

How the values were obtained:
Assay in all cases: radiometric GDP[…]mannose transfer, membrane fraction, organic-phase counting
Format in all cases: biochemical
Details in all cases: GDP[14C]mannose co-substrate, 10 mM MgCl2, 0.1% Nonidet P-40, pH 7.4, 30 °C, 5 min; 50 µL assay (amount, not concentration)
[1] = molecular target: T1, TrDPMS-1,3 (T. reesei Dpm1,3 expressed in S. cerevisiae) (Trichoderma reesei, UniProt G0R8U7)
T1 construct: dpm1Tr (p415 GPD LEU) and dpm3Tr (pESC-URA) in S. cerevisiae dpm1dr∆ mutant; yeast membrane fraction; Dpm2 omitted; with Dolichol-phosphate mannosyltransferase subunit 3
T1 sequence (G0R8U7 entry or part of it): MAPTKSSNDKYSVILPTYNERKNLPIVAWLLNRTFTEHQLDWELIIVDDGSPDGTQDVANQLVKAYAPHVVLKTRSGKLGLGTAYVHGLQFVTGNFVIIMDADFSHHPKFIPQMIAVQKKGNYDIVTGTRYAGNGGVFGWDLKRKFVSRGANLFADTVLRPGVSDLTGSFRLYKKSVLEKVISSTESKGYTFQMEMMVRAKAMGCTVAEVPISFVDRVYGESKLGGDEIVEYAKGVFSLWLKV
T1 sequence (C6KF57 entry or part of it, further chain): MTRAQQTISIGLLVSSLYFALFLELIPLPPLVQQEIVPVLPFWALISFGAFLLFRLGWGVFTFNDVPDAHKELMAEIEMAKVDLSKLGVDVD

[2] = molecular target: T2, ScDPMS (DPMS from S. cerevisiae) (Saccharomyces cerevisiae, UniProt P14020)
T2 construct: gene DPM1; native enzyme in yeast membrane fraction, not purified; Type I, exclusively Dpm1 subunit
T2 sequence (P14020 2-267): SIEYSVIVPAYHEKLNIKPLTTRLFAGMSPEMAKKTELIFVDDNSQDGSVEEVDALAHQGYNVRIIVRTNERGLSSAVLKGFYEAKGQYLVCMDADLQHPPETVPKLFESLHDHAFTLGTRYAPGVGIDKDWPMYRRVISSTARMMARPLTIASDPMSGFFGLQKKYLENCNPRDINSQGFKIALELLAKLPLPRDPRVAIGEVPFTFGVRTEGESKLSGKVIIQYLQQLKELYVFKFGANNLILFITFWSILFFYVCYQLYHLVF

[3] = molecular target: T3, TrDPMS (DPMS from T. reesei) (Trichoderma reesei, UniProt G0R8U7)
T3 construct: gene dpm1; native Dpm1/Dpm2/Dpm3 complex in the membrane fraction of T. reesei, not purified; with Dolichol phosphate-mannose biosynthesis regulatory protein; Dolichol-phosphate mannosyltransferase subunit 3
T3 sequence (G0R8U7 1-243): as the sequence (G0R8U7 entry or part of it) above
T3 sequence (C6KF57 1-92 partner): as the sequence (C6KF57 entry or part of it, further chain) above
T3 sequence (C6KF56 1-80 partner): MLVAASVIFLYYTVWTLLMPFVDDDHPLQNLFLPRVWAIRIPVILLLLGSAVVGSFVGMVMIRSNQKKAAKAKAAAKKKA

S. cerevisiae / Km [1]: 730 ng | S. cerevisiae / Km [2]: 730 ng | T. reesei / Km [3]: 3500 ng
Structure (SMILES): CC(C)=CCC/C(C)=C/CC/C(C)=C/CC/C(C)=C\CC/C(C)=C\CC/C(C)=C\CC/C(C)=C\CC/C(C)=C\CC/C(C)=C\CC/C(C)=C\CCC(C)CCOP(=O)(O)O (stereo not drawn) [Dol-P11]
